For assay [1], the target named is T1, CtRocCOR (Chlorobaculum tepidum, UniProt Q8KC98).
T1 construct: gene CT1526; RocCOR tandem, AA 412-946, recombinant, homodimer; MTSSL spin-labelled for EPR
The assay is described as follows: GTPase activity assay. Type of assay: biochemical.

For assay [2], the target named is T1, CtRocCOR. Briefly: DEER pulse EPR inter-spin distance change upon nucleotide binding. Particulars: 1 mM GppNHp, 150 mM NaCl, 30 mM Tris/HCl, 5 mM MgCl2, pH 7.5, 5% glycerol, 50 K; protein spin-labelled with MTSSL at native Cys600 (C600R1).

T1 sequence (Q8KC98 entry or part of it): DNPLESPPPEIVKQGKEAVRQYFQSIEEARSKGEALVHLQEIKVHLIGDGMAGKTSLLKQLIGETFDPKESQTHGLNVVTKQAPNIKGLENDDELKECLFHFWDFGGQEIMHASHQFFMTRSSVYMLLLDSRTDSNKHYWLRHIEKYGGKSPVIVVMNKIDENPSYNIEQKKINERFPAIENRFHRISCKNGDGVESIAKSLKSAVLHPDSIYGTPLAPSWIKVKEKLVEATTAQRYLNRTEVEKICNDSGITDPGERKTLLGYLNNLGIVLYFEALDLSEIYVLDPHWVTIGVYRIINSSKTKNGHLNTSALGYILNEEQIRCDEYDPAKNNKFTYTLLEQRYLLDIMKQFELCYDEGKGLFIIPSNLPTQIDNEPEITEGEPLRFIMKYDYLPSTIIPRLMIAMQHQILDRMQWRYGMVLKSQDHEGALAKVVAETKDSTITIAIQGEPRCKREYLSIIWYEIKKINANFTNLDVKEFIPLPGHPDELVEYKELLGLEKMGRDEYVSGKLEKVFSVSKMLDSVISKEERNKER

Turning to `Nc1nc2c(ncn2[C@@H]2O[C@H](COP(=O)(O)OP(=O)(O)OP(=O)(O)O)[C@@H](O)[C@H]2O)c(=O)[nH]1` [GTP], at CtRocCOR [1], the GTPase activity assay result is on record as “No significant impairment of GTPase activity by the mutations in comparison with wild-type”. With `Nc1nc2c(ncn2[C@@H]2O[C@H](COP(=O)(O)OP(=O)(O)NP(=O)(O)O)[C@@H](O)[C@H]2O)c(=O)[nH]1` [GppNHp], the “DEER pulse EPR inter-spin distance change upon nucleotide binding” value at CtRocCOR [2] is reported as “in the presence of GppNHp, GDP·AlFx or GDP (Figure 2c) reveal changes upon nt binding”.

The record behind these values is publication PMC4721548, “Conformational heterogeneity of the Roc domains in C. tepidum Roc–COR and implications for human LRRK2 Parkinson mutations” (Bioscience Reports, 2015).
